Data: patent US6187800A, “Method for the prevention and treatment of mastitis” (Novartis Animal Health U.S., Inc., priority 1997, dated 2001)

Columns and labels:
[1] = Hydrophobicity and water solubility
Listeria innocua = test: MIC, agar well diffusion method; assay type: cell-based; details: 37° C. overnight
Procedure: (§1) The minimal inhibitory concentrations (MIC) of micrococcin P1 against a panel of test organisms were determined using an agar well diffusion method. Agar plates were overlaid with soft agar seeded with the test organism. When the agar had solidified wells of 4 mm diameter were cut in the agar. 50 μl of a series of two fold dilutions of the peptide in citrate buffer pH4 were applied to the wells and the plates were kept at 4° C. for two hours prior to incubation at 37° C. overnight. The MIC was determined as the lowest concentration of peptide giving a clear zone of lysis around the well. Indicator strains were grown in Tryptose broth (Difco). M17 medium (Merck) was used for plates and soft agar with the following exceptions. For Pasteurella haemolytica, tryptose supplemented with 5% of toetal calf's serum was used. For Leuconostoc mesenteroides, plate count agar--Merck--, +15% saccharose was used, and for Bacillus cereus plate count agar +0.2% potato starch-Sigma 2004-) was used.

E.coli = test: MIC, agar well diffusion method; assay type: cell-based; details: 37° C. overnight
Procedure: as §1

Micrococcus luteus = test: MIC, agar well diffusion method; assay type: cell-based; details: 37° C. overnight
Procedure: as §1

Bacillus cereus = test: MIC, agar well diffusion method; assay type: cell-based; details: plate count agar +0.2% potato starch
Procedure: as §1

[2] = tested on: Staphylococcus aureus Newbould; test: MIC, agar well diffusion method; assay type: cell-based; details: 37° C. overnight
Procedure: as §1

Streptococcus faecalis = test: MIC, agar well diffusion method; assay type: cell-based; details: 37° C. overnight
Procedure: as §1

Streptococcus uberis = test: MIC, agar well diffusion method; assay type: cell-based; details: 37° C. overnight
Procedure: as §1

[3] = tested on: Leuconostoc mesenteroides; test: MIC, agar well diffusion method; assay type: cell-based; details: plate count agar +15% saccharose
Procedure: as §1

Pasteurella haemolytica = test: MIC, agar well diffusion method; assay type: cell-based; details: tryptose + 5% foetal calf's serum
Procedure: as §1

[4] = tested on: Staphylococcus aureus V557; test: MIC, agar well diffusion method; assay type: cell-based; details: 37° C. overnight
Procedure: as §1

[5] = tested on: pathogens causing bovine mastitis; test: Activity against mastitis pathogens (general statement); assay type: cell-based
Lactobacillus bulgaricus = test: Acidification of milk from treated cows by lactic fermenting bacteria; assay type: cell-based; details: 3 doses at 12 h
Excerpt: (§2) Acidification is the first and most important step in the manufacturing processes when milk is fermented. If acidification proceeds normally then it is very likely that all other steps will be normal. Therefore one can investigate the effect of different concentrations of micrococcin P1 on the kinetics of acidification of milk by lactic fermenting bacteria.
(§3) Cows that are free from infection with mastitis pathogens, based on bacteriological culture of milk, are enrolled in these trials. Identical treatments are administered to all 4 quarters of an individual cow. Milk from evening milkings is refrigerated at 4° C. overnight to be tested the following morning. Samples of 500 ml are pasteurized by heating to 80° C. in a waterbath and then cooled to room temperature.
(§4) Lyophylised cultures as used in commercial conditions are obtained from Rudolf Wittwer, CH-5002 Rombach, Aarau, Switzerland. These cultures are reconstituted according to manufacturers recommendations and reactivated by passage three times in sterile skimmed milk. Each passage is incubated for 16 to 18 hours at the optimum temperature for the said bacterial strain.
(§5) The culture obtained after the third passage is diluted to 2% with whole sterile (UHT) milk, aliquotted in 10 ml tubes and frozen at -20° C. for use in experiments.
(§6) The stock cultures prepared above are thawed at 40° C. then incubated overnight at 37° C. and used to inoculate test samples. The test samples are inoculated with 2% by volume of the experimental culture of the bacterial strain under test. The samples are then mixed and incubated for 24 hours at the optimal temperature for the particular bacterial strain under evaluation. The pH is measured each two hours during an eight hour period and again at 24 hours. The rate of acidification of milk containing different concentrations of active micrococcin P1 can then be compared to the negative controls.
(§7) The results given in tables 4 and 5 below have been obtained from cows receiving various amounts of micrococcin P1 on three occasions, at 12 hour intervals.

[6] = tested on: Streptococcus thermophilus; test: as above; assay type: cell-based; details: 3 doses at 12 h
Excerpt: as §2, §3, §4, §5, §6, §7

micrococcin P1
hydrophobicity [1]: highly hydrophobic
solubility in water [1]: poorly soluble in water
MIC (Listeria innocua): 1.95 µg/mL
MIC (E.coli): > 1000 µg/mL
MIC (Micrococcus luteus): 0.015 µg/mL
MIC (Bacillus cereus): 0.24 µg/mL
MIC [2]: 0.24 µg/mL
MIC (Streptococcus faecalis): 1.98 µg/mL
MIC (Streptococcus uberis): 1.49 µg/mL
MIC [3]: > 1000 µg/mL
MIC (Pasteurella haemolytica): > 1000 µg/mL
MIC [4]: 1.91 µg/mL
activity against pathogens causing bovine mastitis [5]: highly active against pathogens causing bovine mastitis
pH (acidification of milk) (Lactobacillus bulgaricus; 0.1 mg, 0 hours of growth): 6.48
pH (acidification of milk) (Lactobacillus bulgaricus; 0.1 mg, 2 hours of growth): 5.73
pH (acidification of milk) (Lactobacillus bulgaricus; 0.1 mg, 4 hours of growth): 4.29
pH (acidification of milk) (Lactobacillus bulgaricus; 0.1 mg, 6 hours of growth): 3.89
pH (acidification of milk) (Lactobacillus bulgaricus; 0.1 mg, 8 hours of growth): 3.72
pH (acidification of milk) (Lactobacillus bulgaricus; 0.1 mg, 24 hours of growth): 3.51
pH (acidification of milk) (Lactobacillus bulgaricus; 0.5 mg, 0 hours of growth): 6.53
pH (acidification of milk) (Lactobacillus bulgaricus; 0.5 mg, 2 hours of growth): 5.36
pH (acidification of milk) (Lactobacillus bulgaricus; 0.5 mg, 4 hours of growth): 4.21
pH (acidification of milk) (Lactobacillus bulgaricus; 0.5 mg, 6 hours of growth): 3.85
pH (acidification of milk) (Lactobacillus bulgaricus; 0.5 mg, 8 hours of growth): 3.72
pH (acidification of milk) (Lactobacillus bulgaricus; 0.5 mg, 24 hours of growth): 3.47
pH (acidification of milk) (Lactobacillus bulgaricus; 1 mg, 0 hours of growth): 6.56
pH (acidification of milk) (Lactobacillus bulgaricus; 1 mg, 2 hours of growth): 5.83
pH (acidification of milk) (Lactobacillus bulgaricus; 1 mg, 4 hours of growth): 4.34
pH (acidification of milk) (Lactobacillus bulgaricus; 1 mg, 6 hours of growth): 3.94
pH (acidification of milk) (Lactobacillus bulgaricus; 1 mg, 8 hours of growth): 3.75
pH (acidification of milk) (Lactobacillus bulgaricus; 1 mg, 24 hours of growth): 3.50
pH (acidification of milk) (Lactobacillus bulgaricus; 2 mg, 0 hours of growth): 6.57
pH (acidification of milk) (Lactobacillus bulgaricus; 2 mg, 2 hours of growth): 5.69
pH (acidification of milk) (Lactobacillus bulgaricus; 2 mg, 4 hours of growth): 4.34
pH (acidification of milk) (Lactobacillus bulgaricus; 2 mg, 6 hours of growth): 3.92
pH (acidification of milk) (Lactobacillus bulgaricus; 2 mg, 8 hours of growth): 3.75
pH (acidification of milk) (Lactobacillus bulgaricus; 2 mg, 24 hours of growth): 3.49
pH (acidification of milk) ([6]; 0.1 mg, 0 hours of growth): 6.60
pH (acidification of milk) ([6]; 0.1 mg, 2 hours of growth): 6.03
pH (acidification of milk) ([6]; 0.1 mg, 4 hours of growth): 4.47
pH (acidification of milk) ([6]; 0.1 mg, 6 hours of growth): 4.08
pH (acidification of milk) ([6]; 0.1 mg, 8 hours of growth): 3.94
pH (acidification of milk) ([6]; 0.1 mg, 24 hours of growth): 3.52
pH (acidification of milk) ([6]; 0.5 mg, 0 hours of growth): 6.61
pH (acidification of milk) ([6]; 0.5 mg, 2 hours of growth): 6.04
pH (acidification of milk) ([6]; 0.5 mg, 4 hours of growth): 4.50
pH (acidification of milk) ([6]; 0.5 mg, 6 hours of growth): 4.13
pH (acidification of milk) ([6]; 0.5 mg, 8 hours of growth): 4.00
pH (acidification of milk) ([6]; 0.5 mg, 24 hours of growth): 3.51
pH (acidification of milk) ([6]; 1 mg, 0 hours of growth): 6.67
pH (acidification of milk) ([6]; 1 mg, 2 hours of growth): 6.20
pH (acidification of milk) ([6]; 1 mg, 4 hours of growth): 4.53
pH (acidification of milk) ([6]; 1 mg, 6 hours of growth): 4.11
pH (acidification of milk) ([6]; 1 mg, 8 hours of growth): 3.94
pH (acidification of milk) ([6]; 1 mg, 24 hours of growth): 3.48
pH (acidification of milk) ([6]; 2 mg, 0 hours of growth): 6.72
pH (acidification of milk) ([6]; 2 mg, 2 hours of growth): 6.33
pH (acidification of milk) ([6]; 2 mg, 4 hours of growth): 4.74
pH (acidification of milk) ([6]; 2 mg, 6 hours of growth): 4.25
pH (acidification of milk) ([6]; 2 mg, 8 hours of growth): 4.06
pH (acidification of milk) ([6]; 2 mg, 24 hours of growth): 3.57
